The text below walks through data of patent US12595231B2 (priority 2022, dated 2026).

Read-outs that look alike come from different tables or passages of the source.

Data set [1] is described as follows: primary salt formation assessment: storage at 40° C./75% RH for ca. 24 h, XRPD. Type of data set: physicochemical. Particulars: solids stored at 40° C./75% RH for ca. 24 h. The protocol:
Solids were dried at 40° C. under vacuum for ca. 24 h, and then re-analysed by XRPD.
Solids were then stored at 40° C./75% RH for ca. 24 h, and then re-analysed by XRPD.

Data set [2] is classed as physicochemical. The protocol: Approximately 20 mg of each salt was weighed into 3×2 mL push cap vials. 0.1 mL of buffer (Chloride pH 1.2; Acetate pH 4.5; Phosphate pH 6.8) was added to each vial, at 25° C. The experiment was stirred for ca. 24 h. After 2 h, the pH was measured and adjusted if required. After 24 h a final pH measurement was taken. Any slurries were centrifuged and the solids analysed by XRPD.

A short description of data set [3]: primary salt formation assessment: solution degradation (HPLC of mother liquor). Particulars: salt formation experiment. It counts as physicochemical. The protocol:
HPLC analysis was carried out to determine the chemical purity of the mesembrine and to provide information on any impurities. The following conditions were use: • Column: Waters Acquity BEH 018 1.7 μm 150 mm×2.1 mm • Column Temperature: 33° C. • Autosampler Temperature: 25° C. • UV Wavelength: 280 nm • Injection Volume: 5 μL • Flow Rate: 0.29 mL/min • Mobile Phase A: 0.1% NH4 in H2O • Mobile Phase B: Methanol:Water 20:80% v/v • Gradient Program: […]
The experiments were then temperature cycled between the upper temperature limit (specified in Table 3.1) and 5° C. at 0.1° C./min, with 1 h holds at the upper temperature limit, and 5° C. for ca. 72 h.
After temperature cycling, solids were isolated from experiments at 5° C., and analysed by XRPD.

Data set [4] can be described thus: DVS analysis (water uptake). It counts as physicochemical. Particulars: 80% RH, 25° C.; listed as fumarate salt Pattern 4.
A short description of a further data set: 1-week stability study. Type of data set: physicochemical. To be noted: for Observation: Sigma Aldrich colour chart. The protocol:
A 1-week stability study was performed for hydrochloride salt Pattern 1, besylate salt Pattern 1, fumarate salt Pattern 1+4, and fumarate salt Pattern 4.
Approximately 5 mg of the salt was weighed into 3×2 mL push cap vials. The 2 mL vials were then each placed inside a 20 mL vial, with the lids on or off as required. The solids were placed under the required stability conditions for 1 week at the following three conditions: 40° C./75% RH (open); 80° C. (closed); Ambient light, temperature and humidity (open)
After 1-week, visual observations were noted, then the solids were analysed by XRPD and HPLC.

Setting [5] is: Ambient light, temperature and humidity, 1 week.

For the molecule `COc1ccc(C23CCC(=O)CC2N(C)CC3)cc1OC.O=C(O)/C=C/C(=O)O` (centres unmarked) [Fumarate Pattern 1, mesembrine fumarate], the “physical stability at 40° C./75% RH (Comments)” value in data set [1] was “Physically stable”. The “HPLC Conc.” value in data set [2] (Target pH 1.2 (chloride buffer), 25° C., 24 h, with respect to mesembrine) is listed as 29.44 mg/mL. In data set [2] (Target pH 6.8, ca. 20 mg in 0.1 mL buffer), the Observation result was “Oiling”.
Regarding `COc1ccc(C23CCC(=O)CC2N(C)CC3)cc1OC.O=C(O)/C=C/C(=O)O` (centres unmarked) [Fumarate Pattern 2, mesembrine fumarate], in data set [3], the “solution degradation (Comments)” value is “degradation”.
Take `COc1ccc(C23CCC(=O)CC2N(C)CC3)cc1OC.O=C(O)C=CC(=O)O` (centres unmarked) [Fumarate Pattern 4, mesembrine fumarate]: the DVS water uptake in data set [4] stood at 0.5 wt %. In addition, the HPLC in the data set “1-week stability study” (40° C./75% RH (open), 1 week) was 96.4 % area; in the data set “1-week stability study” (80° C. (closed), 1 week), 96.4 % area; in the data set “1-week stability study” (setting [5]), 96.4 % area; in the data set “1-week stability study” (Input) it was 95.9 % area. Further, the “XRPD (pattern number)” value was 4, in “1-week stability study” (40° C./75% RH (open), 1 week); 4, in the data set “1-week stability study” (80° C. (closed), 1 week); 4, in the data set “1-week stability study” (setting [5]); 4, in “1-week stability study” (Input). The Observation result in “1-week stability study” (40° C./75% RH (open), 1 week) is “Faint beige solids (BE10)”; in the data set “1-week stability study” (80° C. (closed), 1 week) it was “Faint beige solids (BE10)”; in the data set “1-week stability study” (setting [5]), “Faint beige solids (BE10)”.
In the case of `COc1ccc(C23CCC(=O)CC2N(C)CC3)cc1OC.O=P(O)(O)O` (centres unmarked) [Phosphate Pattern 1, mesembrine phosphate], the “solution degradation (Comments)” value in data set [3] is on record as “degradation”.
The same measure, in the same setting: for `COc1ccc(C23CCC(=O)CC2N(C)CC3)cc1OC.O=C(O)CCC(=O)O` (centres unmarked) [Succinate Pattern 1, mesembrine succinate] the value was “degradation”.
As for `COc1ccc(C23CCC(=O)CC2N(C)CC3)cc1OC.O=C(O)C(O)C(O)C(=O)O` (centres unmarked) [Tartrate Pattern 1, mesembrine tartrate], the “physical stability at 40° C./75% RH (Comments)” value in data set [1] was “Deliquescence”. Moreover, the “solution degradation (Comments)” value in data set [3] is listed as “degradation”.
